The numbers were not newly measured in patent US20110189317A1, “Method for Inhibiting the Activity of DPP-IV and Lowering Blood Glucose Level” (Naturalendo Tech Co., Ltd., priority 2006, published 2011), which cites them from elsewhere.

Read-outs that look alike come from different tables or passages of the source.

The conditions of data set [1]: combined administration of Metformin with LAF237 or placebo, after 52 weeks; p<0.0001.
The subject of data set [2] is insulin secretion. To be noted: read-out: EC50 (half-maximal effective concentration), insulin secretion.

Regarding `N#C[C@@H]1CCCN1C(=O)CNC12CC3CC(CC(O)(C3)C1)C2` [LAF237], in data set [1], the HbA1c difference was 1.1±0.2%.
Turning to “GLP-1: incretin hormone composed of total 30 amino acids, facilitates insulin secretion”, the EC50 in data set [2] is around 0.01 nM. The blood glucose level entry reads like this: (GLP-1 dropping for 4 hours, patients with secondary failure on oral hypoglycemic agent) “complete normalization in the blood glucose level”; (intravenously, continuously for 1 week, regular diet) “nearly normal blood glucose level”.
